{"source": "patent US9695155B2", "about": "“Herbicidal substituted pyrimidinyloxy benzene compounds” (E. I. DU PONT DE NEMOURS AND COMPANY, priority 2013, dated 2017)", "assay_in_all_cases": "Test E preemergence", "key": {"fall panicum": {"tested_on": "fall panicum", "assay_type": "in vivo, Panicum dichotomiflorum", "conditions": "for Panicum, Fall plant response rating: scale 0 to 100 (0 no effect, 100 complete control); for Plant response rating, Panicum, Fall: scale 0 to 100, 0 no effect, 100 complete control", "from_the_text": "(§1) Seeds of plant species selected from corn (Zea mays), soybean (Glycine max), velvetleaf (Abutilon theophrasti), lambsquarters (Chenopodium album), wild poinsettia (Euphorbia heterophylla), palmer pigweed (Amaranthus palmeri), waterhemp (common waterhemp, Amaranthus rudis), surinam grass (Brachiaria decumbens), large (Lg) crabgrass (Digitaria sanguinalis), Brazilian crabgrass (Digitaria horizontalis), fall panicum (Panicum dichotomiflorum), giant foxtail (Setaria faberii), green foxtail (Setaria viridis), goosegrass (Eleusine indica), johnsongrass (Sorghum halepense), ragweed (common ragweed, Ambrosia elatior), barnyardgrass (Echinochloa crus-galli), sandbur (southern sandbur, Cenchrus echinatus), arrowleaf sida (Sida rhombifolia), Italian ryegrass (Lolium multiflorum), dayflower (Virginia (VA) dayflower, Commelina virginica), field bindweed (Convolvulus arvensis), morningglory (Ipomoea coccinea), nightshade (eastern black nightshade, Solanum ptycanthum), kochia (Kochia scoparia), yellow nutsedge (Cyperus esculentus), cocklebur (common cocklebur, Xanthium strumarium), smartweed (ladysthumb smartweed, and hairy beggarticks (Bidens pilosa), were planted into a silt loam soil and treated preemergence with test chemicals formulated in a non-phytotoxic solvent mixture which included a surfactant.\n(§2) At the same time, plants from these crop and weed species and also horseweed (Canada horseweed, Conyza canadensis), waterhemp_RES1, (ALS & Triazine resistant common waterhemp, Amaranthus rudis), and waterhemp_RES2, (ALS & HPPD resistant common waterhemp, Amaranthus rudis) were planted in pots containing Redi-Earth® planting medium (Scotts Company, 14111 Scottslawn Road, Marysville, Ohio 43041) comprising spaghnum peat moss, vermiculite, wetting agent and starter nutrients were treated with postemergence applications of test chemicals formulated in the same manner. Plants ranged in height from 2 to 18 cm for postemergence treatments (1- to 4-leaf stage). Treated plants and controls were maintained in a greenhouse for 14 to 21 days, after which time all species were compared to controls and visually evaluated. Plant response ratings, summarized in Table E, are based on a scale of 0 to 100 where 0 is no effect and 100 is complete control. A dash (-) response means no test result."}, "dayflower": {"tested_on": "dayflower", "assay_type": "in vivo, Commelina virginica", "conditions": "for Dayflower, VA plant response rating: scale 0 to 100 (0 no effect, 100 complete control); for Plant response rating, Dayflower, VA: scale 0 to 100, 0 no effect, 100 complete control", "outline": "(§3)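 Test chemicals formulated in a non-phytotoxic solvent mixture containing a surfactant were applied preemergence to seeds in silt loam soil or postemergence to plants at the 1- to 4-leaf stage in potting mix. After 14 to 21 days in a greenhouse, injury was visually rated against controls on a 0-100 scale (0 = no effect, 100 = complete control).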"}, "sandbur": {"tested_on": "sandbur", "assay_type": "in vivo, Cenchrus echinatus", "conditions": "for Sandbur plant response rating: scale 0 to 100 (0 no effect, 100 complete control); for Plant response rating, Sandbur: scale 0 to 100, 0 no effect, 100 complete control", "from_the_text": "as §1, §2"}, "yellow nutsedge": {"tested_on": "yellow nutsedge", "assay_type": "in vivo, Cyperus esculentus", "conditions": "for Nutsedge, Yellow plant response rating: scale 0 to 100 (0 no effect, 100 complete control); for Plant response rating, Nutsedge, Yellow: scale 0 to 100, 0 no effect, 100 complete control", "outline": "as §3"}, "wild poinsettia": {"tested_on": "wild poinsettia", "assay_type": "in vivo, Euphorbia heterophylla", "conditions": "for Poinsettia, Wild plant response rating: scale 0 to 100 (0 no effect, 100 complete control); for Plant response rating, Poinsettia, Wild: scale 0 to 100, 0 no effect, 100 complete control", "outline": "as §3"}, "green foxtail": {"tested_on": "green foxtail", "assay_type": "in vivo, Setaria viridis", "conditions": "for Foxtail, Green plant response rating: scale 0 to 100 (0 no effect, 100 complete control); for Plant response rating, Foxtail, Green: scale 0 to 100, 0 no effect, 100 complete control", "outline": "as §3"}, "soybean": {"tested_on": "soybean", "assay_type": "in vivo, Glycine max", "conditions": "for Soybean plant response rating: scale 0 to 100 (0 no effect, 100 complete control); for Plant response rating, Soybean: scale 0 to 100, 0 no effect, 100 complete control", "from_the_text": "as §1, §2"}, "palmer pigweed": {"tested_on": "palmer pigweed", "assay_type": "in vivo, Amaranthus palmeri", "conditions": "for Pigweed, Palmer plant response rating: scale 0 to 100 (0 no effect, 100 complete control); for Plant response rating, Pigweed, Palmer: scale 0 to 100, 0 no effect, 100 complete control", "from_the_text": "as §1, §2"}, "ragweed": {"tested_on": "ragweed", "assay_type": "in vivo, Ambrosia elatior", "conditions": "for Ragweed plant response rating: scale 0 to 100 (0 no effect, 100 complete control); for Plant response rating, Ragweed: scale 0 to 100, 0 no effect, 100 complete control", "outline": "as §3"}}}
{"smiles": "N#Cc1cnn(-c2c(C#N)cccc2Oc2ncc(F)cn2)c1", "note": "[Compound 111]", "values": [{"measurement": "Panicum, Fall plant response rating", "setting": "fall panicum; 16 g ai/ha", "value": 0}, {"measurement": "Panicum, Fall plant response rating", "setting": "fall panicum; 31 g ai/ha", "value": 5}, {"measurement": "Panicum, Fall plant response rating", "setting": "fall panicum; 62 g ai/ha", "value": 80}, {"measurement": "Plant response rating, Panicum, Fall", "setting": "fall panicum; 125 g ai/ha", "value": 100}, {"measurement": "Dayflower, VA plant response rating", "setting": "dayflower; 16 g ai/ha", "value": 0}, {"measurement": "Dayflower, VA plant response rating", "setting": "dayflower; 31 g ai/ha", "value": 0}, {"measurement": "Dayflower, VA plant response rating", "setting": "dayflower; 62 g ai/ha", "value": 20}, {"measurement": "Plant response rating, Dayflower, VA", "setting": "dayflower; 125 g ai/ha", "value": 20}, {"measurement": "Sandbur plant response rating", "setting": "sandbur; 16 g ai/ha", "value": 0}, {"measurement": "Sandbur plant response rating", "setting": "sandbur; 31 g ai/ha", "value": 0}, {"measurement": "Sandbur plant response rating", "setting": "sandbur; 62 g ai/ha", "value": 0}, {"measurement": "Plant response rating, Sandbur", "setting": "sandbur; 125 g ai/ha", "value": 0}, {"measurement": "Nutsedge, Yellow plant response rating", "setting": "yellow nutsedge; 16 g ai/ha", "value": 0}, {"measurement": "Nutsedge, Yellow plant response rating", "setting": "yellow nutsedge; 31 g ai/ha", "value": 0}, {"measurement": "Nutsedge, Yellow plant response rating", "setting": "yellow nutsedge; 62 g ai/ha", "value": 0}, {"measurement": "Plant response rating, Nutsedge, Yellow", "setting": "yellow nutsedge; 125 g ai/ha", "value": 15}, {"measurement": "Poinsettia, Wild plant response rating", "setting": "wild poinsettia; 16 g ai/ha", "value": 15}, {"measurement": "Poinsettia, Wild plant response rating", "setting": "wild poinsettia; 31 g ai/ha", "value": 30}, {"measurement": "Poinsettia, Wild plant response rating", "setting": "wild poinsettia; 62 g ai/ha", "value": 70}, {"measurement": "Plant response rating, Poinsettia, Wild", "setting": "wild poinsettia; 125 g ai/ha", "value": 85}, {"measurement": "Foxtail, Green plant response rating", "setting": "green foxtail; 16 g ai/ha", "value": 0}, {"measurement": "Foxtail, Green plant response rating", "setting": "green foxtail; 31 g ai/ha", "value": 10}, {"measurement": "Foxtail, Green plant response rating", "setting": "green foxtail; 62 g ai/ha", "value": 70}, {"measurement": "Plant response rating, Foxtail, Green", "setting": "green foxtail; 125 g ai/ha", "value": 90}, {"measurement": "Soybean plant response rating", "setting": "soybean; 16 g ai/ha", "value": 0}, {"measurement": "Soybean plant response rating", "setting": "soybean; 31 g ai/ha", "value": 20}, {"measurement": "Soybean plant response rating", "setting": "soybean; 62 g ai/ha", "value": 40}, {"measurement": "Plant response rating, Soybean", "setting": "soybean; 125 g ai/ha", "value": 70}, {"measurement": "Pigweed, Palmer plant response rating", "setting": "palmer pigweed; 16 g ai/ha", "value": 10}, {"measurement": "Pigweed, Palmer plant response rating", "setting": "palmer pigweed; 31 g ai/ha", "value": 20}, {"measurement": "Pigweed, Palmer plant response rating", "setting": "palmer pigweed; 62 g ai/ha", "value": 100}, {"measurement": "Plant response rating, Pigweed, Palmer", "setting": "palmer pigweed; 125 g ai/ha", "value": 100}, {"measurement": "Ragweed plant response rating", "setting": "ragweed; 16 g ai/ha", "value": 25}, {"measurement": "Ragweed plant response rating", "setting": "ragweed; 31 g ai/ha", "value": 50}, {"measurement": "Ragweed plant response rating", "setting": "ragweed; 62 g ai/ha", "value": 70}, {"measurement": "Plant response rating, Ragweed", "setting": "ragweed; 125 g ai/ha", "value": 90}]}
{"smiles": "N#Cc1cccc(Oc2ncc(Cl)cn2)c1-n1cc(C(F)(F)F)cn1", "note": "[Compound 58, 3-[(5-chloro-2-pyrimidinyl)oxy]-2-[4-(trifluoromethyl)-1H-pyrazol-1-yl]benzonitrile]", "values": [{"measurement": "Panicum, Fall plant response rating", "setting": "fall panicum; 16 g ai/ha", "value": 95}, {"measurement": "Panicum, Fall plant response rating", "setting": "fall panicum; 31 g ai/ha", "value": 98}, {"measurement": "Panicum, Fall plant response rating", "setting": "fall panicum; 62 g ai/ha", "value": 100}, {"measurement": "Plant response rating, Panicum, Fall", "setting": "fall panicum; 125 g ai/ha", "value": 100}, {"measurement": "Plant response rating, Panicum, Fall", "setting": "fall panicum; 250 g ai/ha", "value": 100}, {"measurement": "Dayflower, VA plant response rating", "setting": "dayflower; 16 g ai/ha", "value": 5}, {"measurement": "Dayflower, VA plant response rating", "setting": "dayflower; 31 g ai/ha", "value": 20}, {"measurement": "Dayflower, VA plant response rating", "setting": "dayflower; 62 g ai/ha", "value": 70}, {"measurement": "Plant response rating, Dayflower, VA", "setting": "dayflower; 125 g ai/ha", "value": 98}, {"measurement": "Plant response rating, Dayflower, VA", "setting": "dayflower; 250 g ai/ha", "value": 98}, {"measurement": "Sandbur plant response rating", "setting": "sandbur; 16 g ai/ha", "value": 0}, {"measurement": "Sandbur plant response rating", "setting": "sandbur; 31 g ai/ha", "value": 20}, {"measurement": "Sandbur plant response rating", "setting": "sandbur; 62 g ai/ha", "value": 75}, {"measurement": "Plant response rating, Sandbur", "setting": "sandbur; 125 g ai/ha", "value": 90}, {"measurement": "Plant response rating, Sandbur", "setting": "sandbur; 250 g ai/ha", "value": 95}, {"measurement": "Nutsedge, Yellow plant response rating", "setting": "yellow nutsedge; 16 g ai/ha", "value": 0}, {"measurement": "Nutsedge, Yellow plant response rating", "setting": "yellow nutsedge; 31 g ai/ha", "value": 5}, {"measurement": "Nutsedge, Yellow plant response rating", "setting": "yellow nutsedge; 62 g ai/ha", "value": 25}, {"measurement": "Plant response rating, Nutsedge, Yellow", "setting": "yellow nutsedge; 125 g ai/ha", "value": 60}, {"measurement": "Plant response rating, Nutsedge, Yellow", "setting": "yellow nutsedge; 250 g ai/ha", "value": 80}, {"measurement": "Poinsettia, Wild plant response rating", "setting": "wild poinsettia; 16 g ai/ha", "value": 5}, {"measurement": "Poinsettia, Wild plant response rating", "setting": "wild poinsettia; 31 g ai/ha", "value": 15}, {"measurement": "Poinsettia, Wild plant response rating", "setting": "wild poinsettia; 62 g ai/ha", "value": 90}, {"measurement": "Plant response rating, Poinsettia, Wild", "setting": "wild poinsettia; 125 g ai/ha", "value": 100}, {"measurement": "Plant response rating, Poinsettia, Wild", "setting": "wild poinsettia; 250 g ai/ha", "value": 100}, {"measurement": "Foxtail, Green plant response rating", "setting": "green foxtail; 16 g ai/ha", "value": 65}, {"measurement": "Foxtail, Green plant response rating", "setting": "green foxtail; 31 g ai/ha", "value": 95}, {"measurement": "Foxtail, Green plant response rating", "setting": "green foxtail; 62 g ai/ha", "value": 100}, {"measurement": "Plant response rating, Foxtail, Green", "setting": "green foxtail; 125 g ai/ha", "value": 100}, {"measurement": "Plant response rating, Foxtail, Green", "setting": "green foxtail; 250 g ai/ha", "value": 100}, {"measurement": "Soybean plant response rating", "setting": "soybean; 16 g ai/ha", "value": 0}, {"measurement": "Soybean plant response rating", "setting": "soybean; 31 g ai/ha", "value": 0}, {"measurement": "Soybean plant response rating", "setting": "soybean; 62 g ai/ha", "value": 60}, {"measurement": "Plant response rating, Soybean", "setting": "soybean; 125 g ai/ha", "value": 75}, {"measurement": "Plant response rating, Soybean", "setting": "soybean; 250 g ai/ha", "value": 95}, {"measurement": "Pigweed, Palmer plant response rating", "setting": "palmer pigweed; 16 g ai/ha", "value": 100}, {"measurement": "Pigweed, Palmer plant response rating", "setting": "palmer pigweed; 31 g ai/ha", "value": 100}, {"measurement": "Pigweed, Palmer plant response rating", "setting": "palmer pigweed; 62 g ai/ha", "value": 100}, {"measurement": "Plant response rating, Pigweed, Palmer", "setting": "palmer pigweed; 125 g ai/ha", "value": 100}, {"measurement": "Plant response rating, Pigweed, Palmer", "setting": "palmer pigweed; 250 g ai/ha", "value": 100}, {"measurement": "Ragweed plant response rating", "setting": "ragweed; 16 g ai/ha", "value": 0}, {"measurement": "Ragweed plant response rating", "setting": "ragweed; 31 g ai/ha", "value": 0}, {"measurement": "Ragweed plant response rating", "setting": "ragweed; 62 g ai/ha", "value": 5}, {"measurement": "Plant response rating, Ragweed", "setting": "ragweed; 125 g ai/ha", "value": 50}, {"measurement": "Plant response rating, Ragweed", "setting": "ragweed; 250 g ai/ha", "value": 85}]}
